Test results reported in US20090123512A1, “Quorum Sensing Modulators” (priority 2005, published 2009).

System: MW1
Test: Elastase production in culture supernatant, MW1
Assay type: cell-based, Pseudomonas aeruginosa
Protocol: Elastase activity was measured according to the procedure described by Pearson et al. in J. Bacteriol. 179:5756-67 (1997) and pyocyanin concentration was measured according to the procedure described by Essar et al. in J. Bacteriol. 172:884-900 (1990). Protocols were modified slightly to be consistent with the conditions of transcriptional profiling. Cultures were grown in LB amended with 50 mM MOPS pH 7.0. Mid-log cultures were either subcultured directly (MW1) or washed twice with medium (PAO1) and then subcultured to an absorbance at 600 nm (A600) of 0.01. Cultures (1 mL) were grown in the presence of test compounds in 16 mm tubes at 37° C., 250 rpm.
For elastase activity, cultures were grown for 6 hours. Cells were removed by centrifugation and the culture supernatant filtered through a 0.2 μm filter. A 100 μL volume of filtered supernatant was added to 900 μL of 5 mg/mL Elastin Congo Red (Elastin Products Company; Owensville, Mo.) in 1 mM CaCl2, 100 mM Tris HCL, pH 7.2. Reactions were incubated at 37° C., 250 rpm for 18 h. Reactions were stopped by the addition of 100 μL 0.12 M EDTA, undigested substrate removed through centrifugation and the absorbance at 495 nm measured.

Structure (SMILES)	elastase activity in supernatant restored by exogenous signal (MW1, 25 μM C4-HSL added to 0.3 μM 3-oxo-C12-HSL)	elastase activity in supernatant restored by exogenous signal (MW1, 0.3 μM (half-maximal) 3-oxo-C12-HSL alone)	elastase activity in supernatant restored by exogenous signal (MW1, saturating 3-oxo-C12-HSL (25 μM) in addition to saturating C4-HSL (25 μM))
CCCC(=O)N[C@H]1CCOC1=O [Compound C4-HSL, butyryl homoserine lactone]	maximal elastase activity was measured	–	–
CCCCCCCCCC(=O)CC(=O)NC1CCOC1=O (stereo not drawn) [3-oxo-C12-HSL, 3-oxo-dodecanoyl homoserine lactone]	–	restored about one third of the achievable activity	did not increase elastase activity further
